Tests used:
[1] = target: T1, Signal transducer and activator of transcription 5A (Homo sapiens, UniProt P42229); assay: Binding affinity to N-terminal 6his-tagged human STAT5A (136 to 705 residues) expressed in Escherichia coli BL21-DE3 rosetta cells assessed as inhibition constant by FP assay
T1 sequence (P42229 whole entry): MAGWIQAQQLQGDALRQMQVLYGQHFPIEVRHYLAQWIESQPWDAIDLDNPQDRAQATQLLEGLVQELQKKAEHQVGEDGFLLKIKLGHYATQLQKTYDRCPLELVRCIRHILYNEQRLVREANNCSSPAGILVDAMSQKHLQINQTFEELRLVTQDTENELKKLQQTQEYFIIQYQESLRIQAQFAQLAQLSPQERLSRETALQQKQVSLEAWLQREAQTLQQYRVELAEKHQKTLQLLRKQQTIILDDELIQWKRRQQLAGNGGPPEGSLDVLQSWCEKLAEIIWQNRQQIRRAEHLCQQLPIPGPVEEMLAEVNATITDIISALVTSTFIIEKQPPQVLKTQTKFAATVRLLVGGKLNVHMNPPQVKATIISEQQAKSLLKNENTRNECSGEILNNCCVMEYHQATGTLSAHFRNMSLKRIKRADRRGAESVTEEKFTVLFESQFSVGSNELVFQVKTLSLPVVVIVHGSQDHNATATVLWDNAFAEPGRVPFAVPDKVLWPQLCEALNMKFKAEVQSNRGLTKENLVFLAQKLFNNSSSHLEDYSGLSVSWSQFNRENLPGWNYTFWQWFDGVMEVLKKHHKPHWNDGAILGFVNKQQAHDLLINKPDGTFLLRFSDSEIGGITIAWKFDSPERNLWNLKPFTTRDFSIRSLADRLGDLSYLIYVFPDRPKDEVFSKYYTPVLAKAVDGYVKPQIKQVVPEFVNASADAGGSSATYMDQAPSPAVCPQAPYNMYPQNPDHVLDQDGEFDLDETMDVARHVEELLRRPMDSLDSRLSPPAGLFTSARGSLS

[2] = target: T2, Signal transducer and activator of transcription 5B (Homo sapiens, UniProt P51692); assay: Binding affinity to STAT5B (unknown origin) assessed as inhibition constant by FP assay
T2 sequence (P51692 whole entry): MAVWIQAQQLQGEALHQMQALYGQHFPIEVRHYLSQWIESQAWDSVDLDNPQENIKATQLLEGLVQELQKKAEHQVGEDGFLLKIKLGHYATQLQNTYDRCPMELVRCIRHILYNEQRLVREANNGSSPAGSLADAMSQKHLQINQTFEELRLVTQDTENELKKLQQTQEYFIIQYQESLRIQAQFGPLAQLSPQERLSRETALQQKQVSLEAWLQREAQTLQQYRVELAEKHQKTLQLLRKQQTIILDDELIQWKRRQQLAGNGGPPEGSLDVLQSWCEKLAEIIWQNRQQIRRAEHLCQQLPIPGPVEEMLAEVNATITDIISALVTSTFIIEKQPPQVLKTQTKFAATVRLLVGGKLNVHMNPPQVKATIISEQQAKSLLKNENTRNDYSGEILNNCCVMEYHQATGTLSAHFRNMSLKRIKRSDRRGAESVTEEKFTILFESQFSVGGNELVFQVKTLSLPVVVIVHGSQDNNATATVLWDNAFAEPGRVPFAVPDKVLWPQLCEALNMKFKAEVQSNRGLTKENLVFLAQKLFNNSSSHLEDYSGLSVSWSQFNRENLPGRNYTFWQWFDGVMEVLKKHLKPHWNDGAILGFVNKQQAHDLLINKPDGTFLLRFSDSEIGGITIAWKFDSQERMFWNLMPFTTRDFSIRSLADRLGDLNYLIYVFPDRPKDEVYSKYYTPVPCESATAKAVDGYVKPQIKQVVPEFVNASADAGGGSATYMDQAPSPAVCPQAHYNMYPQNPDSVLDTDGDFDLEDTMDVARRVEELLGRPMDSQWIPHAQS

[3] = target: T3, Signal transducer and activator of transcription 6 (Homo sapiens, UniProt P42226); assay: Binding affinity to STAT6 SH2 domain (unknown origin) assessed as inhibition constant by FP assay
T3 sequence (P42226 whole entry): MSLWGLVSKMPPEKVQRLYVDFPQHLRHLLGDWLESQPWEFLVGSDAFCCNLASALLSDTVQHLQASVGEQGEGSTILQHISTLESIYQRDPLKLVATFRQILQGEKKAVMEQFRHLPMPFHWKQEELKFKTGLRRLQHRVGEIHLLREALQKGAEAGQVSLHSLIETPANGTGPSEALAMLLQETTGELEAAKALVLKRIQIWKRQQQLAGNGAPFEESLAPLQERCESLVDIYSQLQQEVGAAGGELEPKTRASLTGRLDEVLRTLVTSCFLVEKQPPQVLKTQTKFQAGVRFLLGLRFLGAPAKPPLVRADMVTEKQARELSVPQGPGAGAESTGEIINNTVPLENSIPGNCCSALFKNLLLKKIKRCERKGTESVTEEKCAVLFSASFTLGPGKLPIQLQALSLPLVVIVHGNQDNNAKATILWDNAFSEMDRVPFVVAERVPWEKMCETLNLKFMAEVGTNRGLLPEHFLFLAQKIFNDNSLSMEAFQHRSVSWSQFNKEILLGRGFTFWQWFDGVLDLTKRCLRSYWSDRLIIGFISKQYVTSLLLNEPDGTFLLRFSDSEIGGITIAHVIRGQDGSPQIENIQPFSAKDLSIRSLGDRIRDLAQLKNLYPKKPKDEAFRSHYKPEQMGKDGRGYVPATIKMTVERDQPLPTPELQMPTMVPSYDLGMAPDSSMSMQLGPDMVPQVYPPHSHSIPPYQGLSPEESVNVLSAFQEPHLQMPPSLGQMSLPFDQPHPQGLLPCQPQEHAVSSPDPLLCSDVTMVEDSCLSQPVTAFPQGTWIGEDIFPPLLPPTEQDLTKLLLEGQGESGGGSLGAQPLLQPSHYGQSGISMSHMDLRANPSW

[4] = target: T1, Signal transducer and activator of transcription 5A; assay: Induction of STAT5 degradation in human SKNO-1 cells measured for 18 hrs by Western blot analysis; assay type: cell-based
[5] = target: T3, Signal transducer and activator of transcription 6; assay: Induction of STAT6 degradation in human SKNO-1 cells measured for 18 hrs by Western blot analysis; assay type: cell-based
[6] = target: T4, Signal transducer and activator of transcription 5A (Homo sapiens) (UniProt P42229); assay: Induction of STAT5 degradation in human SKNO-1 cells assessed as maximal degradation at 0.05 to 5 uM measured for 18 hrs by Western blot analysis relative to control; assay type: cell-based; conditions: dose 0.05-5 µM
T4 sequence (whole entry): T1 sequence (P42229 whole entry)

SMILES | Ki [1] | Ki [2] | Ki [3] | DC50 [4] | DC50 ([5]; read-out: DC50) | DC50 [5] | Emax [6]
CN(C)C(=O)CCN(C(=O)[C@@H]1CCCN1C(=O)[C@H](Cc1ccc(C(F)(F)F)cc1)NC(=O)c1cc2cc(C(F)(F)P(=O)(O)O)ccc2s1)c1ccc(-c2nccs2)cc1 | 2300 nM | 2500 nM | 4000 nM | – | – | – | –
CN(C)C(=O)CCN(C(=O)[C@@H]1CCCN1C(=O)[C@H](Cc1ccc(F)cc1)NC(=O)c1cc2cc(C(F)(F)P(=O)(O)O)ccc2s1)c1ccc(-c2nccs2)cc1 | 1000 nM | 1700 nM | 3500 nM | – | – | – | –
CN(C)C(=O)CCN(C(=O)[C@@H]1CCCN1C(=O)[C@H](Cc1ccc(Br)cc1)NC(=O)c1cc2cc(C(F)(F)P(=O)(O)O)ccc2s1)c1ccc(-c2nccs2)cc1 | 1200 nM | 1600 nM | 3000 nM | – | – | – | –
CC(C)(C)[C@H](NC(=O)c1cc2cc(C(F)(F)P(=O)(O)O)ccc2s1)C(=O)N1CCC[C@H]1C(=O)N(CCC(=O)NCCCCCC#Cc1cccc2c1CN(C1CCC(=O)NC1=O)C2=O)c1ccc(Br)cc1 (some centres undefined) | – | – | – | 1100 nM | > 5000 nM | – | –
CC(C)(C)[C@H](NC(=O)c1cc2cc(C(F)(F)P(=O)(O)O)ccc2s1)C(=O)N1CCC[C@H]1C(=O)N(CCC(=O)N1CC(CC#Cc2cccc3c2CN(C2CCC(=O)NC2=O)C3=O)C1)c1ccc(Br)cc1 (some centres undefined) | – | – | – | > 5000 nM | – | Not Active | –
CN(C)C(=O)CCN(C(=O)[C@@H]1CCCN1C(=O)[C@@H](NC(=O)c1cc2cc(C(F)(F)P(=O)(O)O)ccc2s1)C1CC1)c1ccc(-c2nccs2)cc1 | 2900 nM | 3100 nM | 1300 nM | – | – | – | –
CN(C)C(=O)CCN(C(=O)[C@@H]1CCCN1C(=O)[C@@H](NC(=O)c1cc2cc(C(F)(F)P(=O)(O)O)ccc2s1)C(C)(C)C)c1ccc(-c2ccccc2)cc1 | 3400 nM | 5200 nM | 2000 nM | – | – | – | –
CC(C)(C)[C@H](NC(=O)c1cc2cc(C(F)(F)P(=O)(O)O)ccc2s1)C(=O)N1CCC[C@H]1C(=O)N(CCC(=O)NCCCC#Cc1cccc2c1CN(C1CCC(=O)NC1=O)C2=O)c1ccc2scnc2c1 (some centres undefined) | 1000 nM | 400 nM | – | 450 nM | – | – | –
CN(CCCC#Cc1cccc2c1CN(C1CCC(=O)NC1=O)C2=O)C(=O)CCN(C(=O)[C@@H]1CCCN1C(=O)[C@@H](NC(=O)c1cc2cc(C(F)(F)P(=O)(O)O)ccc2s1)C(C)(C)C)c1ccc(Br)cc1 (some centres undefined) | – | – | – | 190 nM | > 5000 nM | – | > 95%
CN(C)C(=O)CCN(C(=O)[C@@H]1CCCN1C(=O)[C@@H](NC(=O)c1cc2cc(C(F)(F)P(=O)(O)O)ccc2s1)C(C)(C)C)c1cccc(-c2nccs2)c1 | 4900 nM | 6100 nM | 1900 nM | – | – | – | –

Other lines, results leading:

Ki [1] | Ki [2] | Ki [3] | DC50 [4] | DC50 ([5]; read-out: DC50) | DC50 [5] | Emax [6] | SMILES
– | – | – | 500 nM | > 5000 nM | – | – | CC(C)(C)[C@H](NC(=O)c1cc2cc(C(F)(F)P(=O)(O)O)ccc2s1)C(=O)N1CCC[C@H]1C(=O)N(CCC(=O)NCCCCC#Cc1cccc2c1CN(C1CCC(=O)NC1=O)C2=O)c1ccc(Br)cc1 (some centres undefined)
– | – | – | 1400 nM | > 5000 nM | – | – | CC(C)(C)[C@H](NC(=O)c1cc2cc(C(F)(F)P(=O)(O)O)ccc2s1)C(=O)N1CCC[C@H]1C(=O)N(CCC(=O)NCCCCCCC#Cc1cccc2c1CN(C1CCC(=O)NC1=O)C2=O)c1ccc(Br)cc1 (some centres undefined)
– | – | – | > 5000 nM | – | Not Active | – | CC(C)(C)[C@H](NC(=O)c1cc2cc(C(F)(F)P(=O)(O)O)ccc2s1)C(=O)N1CCC[C@H]1C(=O)N(CCC(=O)N1CCC(Nc2cccc3c2CN(C2CCC(=O)NC2=O)C3=O)CC1)c1ccc(Br)cc1 (some centres undefined)
– | – | – | > 5000 nM | – | Not Active | – | CC(C)(C)[C@H](NC(=O)c1cc2cc(C(F)(F)P(=O)(O)O)ccc2s1)C(=O)N1CCC[C@H]1C(=O)N(CCC(=O)N1CCC(C#Cc2cccc3c2CN(C2CCC(=O)NC2=O)C3=O)CC1)c1ccc(Br)cc1 (some centres undefined)
– | – | – | 4200 nM | – | Not Active | – | CC(C)(C)[C@H](NC(=O)c1cc2cc(C(F)(F)P(=O)(O)O)ccc2s1)C(=O)N1CCC[C@H]1C(=O)N(CCC(=O)N1CC(CCC#Cc2cccc3c2CN(C2CCC(=O)NC2=O)C3=O)C1)c1ccc(Br)cc1 (some centres undefined)
1200 nM | 1000 nM | 200 nM | – | – | – | – | CN(C)C(=O)CCN(C(=O)[C@@H]1CCCN1C(=O)[C@@H](NC(=O)c1cc2cc(C(F)(F)P(=O)(O)O)ccc2s1)C(C)(C)C)c1ccc2ccccc2c1
– | – | – | > 5000 nM | > 5000 nM | – | – | CC(C)(C)[C@H](NC(=O)c1cc2cc(C(F)(F)P(=O)(O)O)ccc2s1)C(=O)N1CCC[C@H]1C(=O)N(CCC(=O)NCCC#Cc1cccc2c1CN(C1CCC(=O)NC1=O)C2=O)c1ccc(Br)cc1 (some centres undefined)
1400 nM | 1600 nM | 1500 nM | – | – | – | – | CN(C)C(=O)CCN(C(=O)[C@@H]1CCCN1C(=O)[C@H](CCc1ccccc1)NC(=O)c1cc2cc(C(F)(F)P(=O)(O)O)ccc2s1)c1ccc(-c2nccs2)cc1
3200 nM | 4000 nM | 2500 nM | – | – | – | – | CN(C)C(=O)CCN(C(=O)[C@@H]1CCCN1C(=O)[C@@H](NC(=O)c1cc2cc(C(F)(F)P(=O)(O)O)ccc2s1)c1ccccc1)c1ccc(-c2nccs2)cc1

Reference: ChEMBL document CHEMBL5380794, “Discovery of a Potent and Selective STAT5 PROTAC Degrader with Strong Antitumor Activity In Vivo in Acute Myeloid Leukemia” (J Med Chem, 2023)
